Assays:
[1] = biological target: T1, PDK1-PKD protein (Protein Kinase Domain fragment) (Homo sapiens, UniProt O15530); experiment: Microscale Thermophoresis (MST) binding affinity, PDK1-PKD; settings: in the presence of ATP; FIG. 48; read-out: Dissociation constant (Kd), PDK1-PKD
T1 construct: the Protein Kinase Domain (PKD) fragment; inferred from Ni-NTA purification; made in house; host or cells: Sf9 insect cells, baculovirus expression system
Experimental: Microscale Thermophoresis (MST) analysis was performed to quantitatively measure the binding affinity between PDK1 protein and substrate peptides (PDKTide) or the company-developed low-molecular-weight compound (GO88).
The target proteins were the full-length (PDK1-FL) protein of human-derived PDK1 and the Protein Kinase Domain (PKD) fragment, which were expressed using a baculovirus expression system in insect cell lines (Sf9).
The purity of the purified proteins was confirmed by SDS-PAGE and Coomassie Brilliant Blue staining.
The purified protein was labeled with a fluorescent label using the Monolith NT™ RED-NHS Protein Fluorescent Labeling Kit (NanoTemper).
Specifically, 20 μM of the protein was dissolved in PBS (pH 7.4) buffer, mixed with the fluorescent reagent, and reacted at room temperature under dark conditions for 30 minutes. The mixture was then buffered with MST analysis buffer (50 mM HEPES, 150 mM NaCl, 1 mM DTT, 0.05% Tween-20, pH 7.5). […]
The reaction samples were injected into an MST-specific capillary (NanoTemper) and analyzed using a Monolith NT.115 device (NanoTemper) under laser intensity conditions. […]
The measured data were analyzed using MO.Affinity Analysis software (NanoTemper), and the dissociation constant (Kd) was calculated from the binding curve.

[2] = system: C57BL/6 mice with skin grafts; experiment: Skin graft animal model (BALB/c donor, C57BL/6 recipient); format: in vivo, mouse; settings: 0.15 mg/kg twice daily
Experimental: To evaluate the immune-suppressive effects of the compounds according to the present invention, a skin graft animal model was established, and the efficacy of the compounds was analyzed in the model.
First, female BALB/c mice aged 7 weeks and weighing approximately 20 g were used as donor animals, and female C57BL/6 mice of the same age and weight were used as recipient animals. All experimental animals were supplied by HanabioTech Co., Ltd.
Prior to the experiment, the animals were acclimatized in SPF-certified facilities for one week and then used in the experiment. The housing conditions were maintained at a temperature of 22±2° C., relative humidity of 55+10%, and a 12-hour light-dark cycle.
To establish the skin graft model, a anesthetic solution consisting of ketamine, […], and PBS in a volume ratio of 1:1:3 was administered intraperitoneally to C57BL/6 mice to induce anesthesia.
The hair on the dorsal side of the anesthetized mice was removed and disinfected, followed by excision of the full-thickness skin using an 8 mm punch. Subsequently, skin of the same size was harvested from donor mice (BALB/c) and transplanted. […]
Subsequently, the proportions of CD3- and B220-positive cells were analyzed using a flow cytometer.

[3] = system: human lung fibroblasts MRC-5 cell lines; experiment: TGF-β induced Collagen I expression in MRC-5 cells (Western blot); format: cell-based; settings: TGF-β 5 ng/ml; 0.5 μM and 1 μM; 24 hours; FIG. 44
Experimental: To confirm that the compound of the present invention directly acts on fibrosis-related mechanisms, in vitro experiments were performed using human lung fibroblasts MRC-5 cell lines (Korea Cell Bank).
First, MRC-5 cells were seeded at 5×10^3 cells per well in a 6-well plate and stabilized for 24 hours.
Subsequently, experimental groups were established, including a control group, a group treated with TGF-β (5 ng/ml) alone, and groups treated with TGF-β and the compound GO88 from the present invention at concentrations of 0.5 μM and 1 μM, respectively.
After treating each group with the drugs for 24 hours, the cell medium was removed, and the cells were washed twice with cold PBS. Then, RIPA lysis buffer containing phosphatase inhibitor and protease inhibitor was added to each group to extract proteins.
The extracted proteins were incubated at 4° C. for 30 minutes, then centrifuged at 13,000 rpm for 15 minutes, and the supernatant was collected. The total protein concentration was measured using the BCA protein quantification method.
Subsequently, the proteins were separated by SDS-PAGE, transferred to a PVDF membrane, and Western blot analysis was performed.
The expression levels of Collagen I, a marker related to pulmonary fibrosis, were confirmed, with GAPDH used as an internal control.

T1 sequence (O15530 82-342 limits assumed): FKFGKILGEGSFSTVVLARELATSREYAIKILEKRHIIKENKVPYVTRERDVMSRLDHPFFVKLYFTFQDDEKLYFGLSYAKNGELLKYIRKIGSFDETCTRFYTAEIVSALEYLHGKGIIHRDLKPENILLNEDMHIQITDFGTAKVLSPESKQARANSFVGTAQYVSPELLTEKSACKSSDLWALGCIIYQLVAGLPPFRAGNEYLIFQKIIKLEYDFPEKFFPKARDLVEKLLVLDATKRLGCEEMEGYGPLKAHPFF

- Kd [1]: ~371 nM
SMILES: Nc1ncccc1C(=O)NCCCCCCCCCCCCN1CCNCC1 [Compound 14, 2-Amino-N-(12-(piperazin-1-yl)dodecyl)nicotinamide]
- Animals with graft pinkening and good blood flow ([2]; day 10 post-transplantation): three out of five
- Animals with graft pinkening and good blood flow ([2]; day 15 post-transplantation): one out of five
- Protein expression of Collagen I [3]: inhibited in a concentration-dependent manner

— patent US20260183274A1, “PDK1 REGULATORY COMPOUND AND COMPOSITION CONTAINING THE SAME” (PROVIBIO CO., LTD., priority 2024, published 2026)
